In patent US10131652B2, “Pyrimidinyloxy benzene derivatives as herbicides” (E. I. DU PONT DE NEMOURS AND COMPANY, priority 2014, dated 2018):

What was measured:
Test in all cases: Test D pre-/postemergence plant response
Format in all cases: in vivo
[1] = system: lambsquarters (Chenopodium album); conditions: Chenopodium album, pre-emergence, Preemergence, scale 0 to 100 (0 no effect, 100 complete control), read-out: Plant response rating, Lambsquarters
Procedure, shortened: (§1)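 Greenhouse herbicidal response, both pre- and postemergence applications, with solvent/surfactant formulation. Postemergence plants were at 1- to 4-leaf stage. Visual scores 0–100 relative to controls, taken 13 to 15 days later.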

[2] = system: barnyardgrass (Echinochloa crus-galli); conditions: Echinochloa crus-galli, pre-emergence, Preemergence
Procedure, shortened: as §1

[3] = system: large (Lg) crabgrass (Digitaria sanguinalis); conditions: Digitaria sanguinalis, pre-emergence, Preemergence, scale 0 to 100 (0 no effect, 100 complete control), read-out: Plant response rating, Crabgrass, Large
Procedure, shortened: as §1

[4] = system: velvetleaf (Abutilon theophrasti); conditions: Abutilon theophrasti, pre-emergence, Preemergence, scale 0 to 100 (0 no effect, 100 complete control), read-out: Plant response rating, Velvetleaf
Procedure, shortened: as §1

[5] = system: galium (catchweed bedstraw, Galium aparine); conditions: Galium, pre-emergence, Preemergence, scale 0 to 100 (0 no effect, 100 complete control), read-out: Plant response rating, Galium
Procedure, shortened: as §1

[6] = system: winter wheat (Triticum aestivum); conditions: Triticum aestivum, pre-emergence, Preemergence, scale 0 to 100 (0 no effect, 100 complete control), read-out: Plant response rating, Wheat
Procedure, shortened: as §1

[7] = system: Italian ryegrass (Lolium multiflorum); conditions: Lolium multiflorum, pre-emergence, Preemergence, scale 0 to 100 (0 no effect, 100 complete control), read-out: Plant response rating, Ryegrass, Italian
Procedure, shortened: as §1

[8] = system: pigweed (Amaranthus retroflexus); conditions: Amaranthus retroflexus, pre-emergence, Preemergence, scale 0 to 100 (0 no effect, 100 complete control), read-out: Plant response rating, Pigweed
Procedure, shortened: as §1

[9] = system: waterhemp (common waterhemp, Amaranthus rudis); conditions: Amaranthus tuberculatus, pre-emergence, Preemergence, scale 0 to 100 (0 no effect, 100 complete control), read-out: Plant response rating, Waterhemp
Procedure, shortened: as §1

[10] = system: morningglory (Ipomoea coccinea); conditions: Ipomoea, pre-emergence, Preemergence, scale 0 to 100 (0 no effect, 100 complete control), read-out: Plant response rating, Morningglory
Procedure, shortened: as §1

[11] = system: corn (Zea mays); conditions: Zea mays, pre-emergence, Preemergence, scale 0 to 100 (0 no effect, 100 complete control)
Procedure, shortened: as §1

[12] = system: ragweed (common ragweed, Ambrosia elatior); conditions: Ambrosia artemisiifolia, pre-emergence, Preemergence, scale 0 to 100 (0 no effect, 100 complete control), read-out: Plant response rating, Ragweed
Procedure, shortened: as §1

[13] = system: yellow nutsedge (Cyperus esculentus); conditions: Cyperus, pre-emergence, Preemergence, scale 0 to 100 (0 no effect, 100 complete control), read-out: Plant response rating, Nutsedge, Yellow
Procedure, shortened: as §1

[14] = system: soybean (Glycine max); conditions: Glycine max, pre-emergence, Preemergence, scale 0 to 100 (0 no effect, 100 complete control), read-out: Plant response rating, Soybean
Procedure, shortened: as §1

[15] = system: giant foxtail (Setaria faberii); conditions: Setaria faberi, pre-emergence, Preemergence, scale 0 to 100 (0 no effect, 100 complete control), read-out: Plant response rating, Foxtail, Giant
Procedure, shortened: as §1

[16] = system: blackgrass (Alopecurus myosuroides); conditions: Alopecurus myosuroides, pre-emergence, Preemergence, scale 0 to 100 (0 no effect, 100 complete control), read-out: Plant response rating, Blackgrass
Procedure, shortened: as §1

[17] = system: johnsongrass (Sorghum halepense); conditions: Sorghum halepense, pre-emergence, Preemergence, scale 0 to 100 (0 no effect, 100 complete control), read-out: Plant response rating, Johnsongrass
Procedure, shortened: as §1

[18] = system: oilseed rape (Brassica napus); conditions: Brassica napus, pre-emergence, Preemergence, scale 0 to 100 (0 no effect, 100 complete control), read-out: Plant response rating, Oilseed Rape
Procedure, shortened: as §1

FCc1cc(-c2ccccc2Oc2ncc(Cl)cn2)no1 [Compound 32, 5-chloro-2-[2-[5-(fluoromethyl)-3-isoxazolyl]phenoxy]pyrimidine]
pest or weed control at 8 g/ha ([1]; 8 g ai/ha): 95%
pest or weed control at 16 g/ha ([1]; 16 g ai/ha): 95%
pest or weed control at 31 g/ha ([1]; 31 g ai/ha): 98%
pest or weed control at 62 g/ha ([1]; 62 g ai/ha): 100%
pest or weed control at 62 g/ha ([2]; 62 g ai/ha, read-out: Plant response rating (scale 0 to 100), Barnyardgrass): 98%
pest or weed control at 8 g/ha ([2]; 8 g ai/ha, scale 0 to 100 (0 no effect, 100 complete control), read-out: Plant response rating, Barnyardgrass): 0%
pest or weed control at 16 g/ha ([2]; 16 g ai/ha, scale 0 to 100 (0 no effect, 100 complete control), read-out: Plant response rating, Barnyardgrass): 5%
pest or weed control at 31 g/ha ([2]; 31 g ai/ha, scale 0 to 100 (0 no effect, 100 complete control), read-out: Plant response rating, Barnyardgrass): 55%
pest or weed control at 8 g/ha ([3]; 8 g ai/ha): 100%
pest or weed control at 16 g/ha ([3]; 16 g ai/ha): 90%
pest or weed control at 31 g/ha ([3]; 31 g ai/ha): 98%
pest or weed control at 62 g/ha ([3]; 62 g ai/ha): 100%
pest or weed control at 8 g/ha ([4]; 8 g ai/ha): 5%
pest or weed control at 16 g/ha ([4]; 16 g ai/ha): 40%
pest or weed control at 31 g/ha ([4]; 31 g ai/ha): 55%
pest or weed control at 62 g/ha ([4]; 62 g ai/ha): 85%
pest or weed control at 8 g/ha ([5]; 8 g ai/ha): 0%
pest or weed control at 16 g/ha ([5]; 16 g ai/ha): 25%
pest or weed control at 31 g/ha ([5]; 31 g ai/ha): 65%
pest or weed control at 62 g/ha ([5]; 62 g ai/ha): 75%
plant injury at 8 g/ha ([6]; 8 g ai/ha): 0%
plant injury at 16 g/ha ([6]; 16 g ai/ha): 0%
plant injury at 31 g/ha ([6]; 31 g ai/ha): 0%
plant injury at 62 g/ha ([6]; 62 g ai/ha): 5%
pest or weed control at 8 g/ha ([7]; 8 g ai/ha): 0%
pest or weed control at 16 g/ha ([7]; 16 g ai/ha): 0%
pest or weed control at 31 g/ha ([7]; 31 g ai/ha): 0%
pest or weed control at 62 g/ha ([7]; 62 g ai/ha): 10%
pest or weed control at 8 g/ha ([8]; 8 g ai/ha): 100%
pest or weed control at 16 g/ha ([8]; 16 g ai/ha): 100%
pest or weed control at 31 g/ha ([8]; 31 g ai/ha): 98%
pest or weed control at 62 g/ha ([8]; 62 g ai/ha): 100%
pest or weed control at 8 g/ha ([9]; 8 g ai/ha): 100%
pest or weed control at 16 g/ha ([9]; 16 g ai/ha): 100%
pest or weed control at 31 g/ha ([9]; 31 g ai/ha): 100%
pest or weed control at 62 g/ha ([9]; 62 g ai/ha): 98%
pest or weed control at 8 g/ha ([10]; 8 g ai/ha): 0%
pest or weed control at 16 g/ha ([10]; 16 g ai/ha): 0%
pest or weed control at 31 g/ha ([10]; 31 g ai/ha): 5%
pest or weed control at 62 g/ha ([10]; 62 g ai/ha): 0%
Corn plant response rating (crop injury, 0 = no effect, 100 = complete kill) at 8 g/ha ([11]; 8 g ai/ha): 0%
Corn plant response rating (crop injury, 0 = no effect, 100 = complete kill) at 16 g/ha ([11]; 16 g ai/ha): 0%
Corn plant response rating (crop injury, 0 = no effect, 100 = complete kill) at 31 g/ha ([11]; 31 g ai/ha): 0%
Corn plant response rating (crop injury, 0 = no effect, 100 = complete kill) at 62 g/ha ([11]; 62 g ai/ha): 0%
pest or weed control at 8 g/ha ([12]; 8 g ai/ha): 75%
pest or weed control at 16 g/ha ([12]; 16 g ai/ha): 60%
pest or weed control at 31 g/ha ([12]; 31 g ai/ha): 75%
pest or weed control at 62 g/ha ([12]; 62 g ai/ha): 70%
pest or weed control at 8 g/ha ([13]; 8 g ai/ha): 60%
pest or weed control at 16 g/ha ([13]; 16 g ai/ha): 65%
pest or weed control at 31 g/ha ([13]; 31 g ai/ha): 0%
pest or weed control at 62 g/ha ([13]; 62 g ai/ha): 25%
plant injury at 8 g/ha ([14]; 8 g ai/ha): 10%
plant injury at 16 g/ha ([14]; 16 g ai/ha): 15%
plant injury at 31 g/ha ([14]; 31 g ai/ha): 25%
plant injury at 62 g/ha ([14]; 62 g ai/ha): 65%
pest or weed control at 8 g/ha ([15]; 8 g ai/ha): 0%
pest or weed control at 16 g/ha ([15]; 16 g ai/ha): 35%
pest or weed control at 31 g/ha ([15]; 31 g ai/ha): 85%
pest or weed control at 62 g/ha ([15]; 62 g ai/ha): 95%
pest or weed control at 8 g/ha ([16]; 8 g ai/ha): 0%
pest or weed control at 16 g/ha ([16]; 16 g ai/ha): 0%
pest or weed control at 31 g/ha ([16]; 31 g ai/ha): 30%
pest or weed control at 62 g/ha ([16]; 62 g ai/ha): 35%
pest or weed control at 8 g/ha ([17]; 8 g ai/ha): 0%
pest or weed control at 16 g/ha ([17]; 16 g ai/ha): 45%
pest or weed control at 31 g/ha ([17]; 31 g ai/ha): 75%
pest or weed control at 62 g/ha ([17]; 62 g ai/ha): 85%
plant injury at 8 g/ha ([18]; 8 g ai/ha): 50%
plant injury at 16 g/ha ([18]; 16 g ai/ha): 80%
plant injury at 31 g/ha ([18]; 31 g ai/ha): 100%
plant injury at 62 g/ha ([18]; 62 g ai/ha): 100%
